Laboratory results as given in patent US20250163104A1, “MACROCYCLIC IMMUNOMODULATORS” (priority 2021, published 2025).
Where a SMILES comes first, the peptide text is derived from it. Bridges are numbered along the chain shown (N, C = ends). [ ]: non-standard residue; d: D form. ξ: configuration not given here. Bip = N[C@@H](Cc1ccc(-c2ccccc2)cc1)C(=O)O; Phe(3-Me) = Cc1cccc(C[C@H](N)C(=O)O)c1; 3Pal = N[C@@H](Cc1cccnc1)C(=O)O; 4Pal = N[C@@H](Cc1ccncc1)C(=O)O; Cha = N[C@@H](CC1CCCCC1)C(=O)O; Ile(3ξ) = CCC(C)[C@H](N)C(=O)O; Orn = NCCC[C@H](N)C(=O)O; Dab = NCC[C@H](N)C(=O)O; Dap = NC[C@H](N)C(=O)O

These molecules were tested against T1, human PD-1 / PD-L1-Ig binding on Jurkat cell line over-expressing human PD-1 (Jurkat-PD-1) (Homo sapiens, UniProt Q15116) (assay: Jurkat-PD-1 Cell Binding High-Content Screening Assay (CBA)). Conditions: Jurkat-PD-1 cells, PE-labeled PD-L1-Ig 20 nM final; read-out: Jurkat HPD1_PDL1 IC50.
T1 construct: expressed in transfected cells; host or cells: Jurkat
T1 sequence (Q15116 25-288): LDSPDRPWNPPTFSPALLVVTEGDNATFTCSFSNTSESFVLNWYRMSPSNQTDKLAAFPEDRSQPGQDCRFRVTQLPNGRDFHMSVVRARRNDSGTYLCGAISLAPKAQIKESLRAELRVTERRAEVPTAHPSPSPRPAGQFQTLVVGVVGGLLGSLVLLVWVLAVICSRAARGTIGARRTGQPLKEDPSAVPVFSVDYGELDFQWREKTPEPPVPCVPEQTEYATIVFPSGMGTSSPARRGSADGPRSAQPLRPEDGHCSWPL
Type: cell-based
In short: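 Cell-bound PE-labeled PD-L1-Ig (20 nM final, 1 h) measured by high-content imaging after fixation and Hoechst 33342 counterstain. Compound was applied first for 2 h at 37° C. to Jurkat cells over-expressing human PD-1 in DMEM with 10% FCS.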
In the case of `CCC(C)[C@@H]1NC(=O)[C@H](Cc2ccc(-c3ccccc3)cc2)NC(=O)[C@H](C(C)C)NC(=O)[C@H](Cc2c[nH]c3ccccc23)NC(=O)[C@H](CC(=O)O)NC(=O)[C@H](Cc2cccnc2)NC(=O)[C@H](CC(N)=O)NC(=O)CSC[C@@H](C(=O)N[C@@H](C)C(N)=O)NC(=O)[C@H]([C@@H](C)O)NC(=O)[C@H](C(C)C)NC(=O)[C@H](CC2CCCCC2)NC(=O)[C@H](CCN)NC(=O)[C@@H](CC(C)C)NC(=O)[C@H](CCCN)NC1=O` (stereo partly drawn) [Compound 2228] ({CH2CO}-N[3Pal]DWV[Bip][Ile(3ξ)][Orn][dL][Dab][Cha]VTCA-NH2; thioether N-14), the IC50 is reported as 16.1 nM.
`CCC(C)[C@@H]1NC(=O)[C@H](Cc2ccc(-c3ccccc3)cc2)NC(=O)[C@H](C(C)C)NC(=O)[C@H](Cc2c[nH]c3ccccc23)NC(=O)[C@H](CC(=O)O)NC(=O)[C@H](Cc2cccnc2)NC(=O)[C@H](Cc2ccccc2)NC(=O)CSC[C@@H](C(=O)N[C@@H](C)C(N)=O)NC(=O)[C@H]([C@@H](C)O)NC(=O)[C@H](C(C)C)NC(=O)[C@H](CC2CCCCC2)NC(=O)[C@H](CCN)NC(=O)[C@@H](CC(C)C)NC(=O)[C@H](CCCN)NC1=O` (stereo partly drawn) [Compound 2229] ({CH2CO}-F[3Pal]DWV[Bip][Ile(3ξ)][Orn][dL][Dab][Cha]VTCA-NH2; thioether N-14) showed an IC50 of 21.5 nM.
Work on `CCC(C)[C@@H]1NC(=O)[C@H](Cc2ccc(-c3ccccc3)cc2)NC(=O)[C@H](C(C)C)NC(=O)[C@H](Cc2c[nH]c3ccccc23)NC(=O)[C@H](CC(=O)O)NC(=O)[C@H](Cc2cccnc2)NC(=O)[C@H](CN)NC(=O)CSC[C@@H](C(=O)N[C@@H](C)C(N)=O)NC(=O)[C@H]([C@@H](C)O)NC(=O)[C@H](C(C)C)NC(=O)[C@H](CC2CCCCC2)NC(=O)[C@H](CCN)NC(=O)[C@@H](CC(C)C)NC(=O)[C@H](CCCN)NC1=O` (stereo partly drawn) [Compound 2230] ({CH2CO}-[Dap][3Pal]DWV[Bip][Ile(3ξ)][Orn][dL][Dab][Cha]VTCA-NH2; thioether N-14) yielded an IC50 of 16.1 nM.
`CCC(C)[C@@H]1NC(=O)[C@H](Cc2ccc(-c3ccccc3)cc2)NC(=O)[C@H](C(C)C)NC(=O)[C@H](Cc2c[nH]c3ccccc23)NC(=O)[C@H](CC(=O)O)NC(=O)[C@H](Cc2cccnc2)NC(=O)[C@H](Cc2ccncc2)NC(=O)CSC[C@@H](C(=O)N[C@@H](C)C(N)=O)NC(=O)[C@H]([C@@H](C)O)NC(=O)[C@H](C(C)C)NC(=O)[C@H](CC2CCCCC2)NC(=O)[C@H](CCN)NC(=O)[C@@H](CC(C)C)NC(=O)[C@H](CCCN)NC1=O` (stereo partly drawn) [Compound 2232] ({CH2CO}-[4Pal][3Pal]DWV[Bip][Ile(3ξ)][Orn][dL][Dab][Cha]VTCA-NH2; thioether N-14) was tested, and the IC50 was 13.6 nM.
For `CCC(C)[C@@H]1NC(=O)[C@H](Cc2ccc(-c3ccccc3)cc2)NC(=O)[C@H](C(C)C)NC(=O)[C@H](Cc2cccc(C)c2)NC(=O)[C@H](CC(=O)O)NC(=O)[C@H](Cc2cccnc2)NC(=O)[C@H](CC(N)=O)NC(=O)CSC[C@@H](C(=O)N[C@@H](C)C(N)=O)NC(=O)[C@H]([C@@H](C)O)NC(=O)[C@H](C(C)C)NC(=O)[C@H](CC2CCCCC2)NC(=O)[C@H](CCN)NC(=O)[C@@H](CC(C)C)NC(=O)[C@H](CCCN)NC1=O` (stereo partly drawn) [Compound 2233] ({CH2CO}-N[3Pal]D[Phe(3-Me)]V[Bip][Ile(3ξ)][Orn][dL][Dab][Cha]VTCA-NH2; thioether N-14), the IC50 was 12 nM.
For `CCC(C)[C@@H]1NC(=O)[C@H](Cc2ccc(-c3ccccc3)cc2)NC(=O)[C@H](C(C)C)NC(=O)[C@H](Cc2cccc(C)c2)NC(=O)[C@H](CC(=O)O)NC(=O)[C@H](Cc2cccnc2)NC(=O)[C@H](Cc2ccccc2)NC(=O)CSC[C@@H](C(=O)N[C@@H](C)C(N)=O)NC(=O)[C@H]([C@@H](C)O)NC(=O)[C@H](C(C)C)NC(=O)[C@H](CC2CCCCC2)NC(=O)[C@H](CCN)NC(=O)[C@@H](CC(C)C)NC(=O)[C@H](CCCN)NC1=O` (stereo partly drawn) [Compound 2234] ({CH2CO}-F[3Pal]D[Phe(3-Me)]V[Bip][Ile(3ξ)][Orn][dL][Dab][Cha]VTCA-NH2; thioether N-14), the IC50 was 70.8 nM.
`CCC(C)[C@@H]1NC(=O)[C@H](Cc2ccc(-c3ccccc3)cc2)NC(=O)[C@H](C(C)C)NC(=O)[C@H](Cc2cccc(C)c2)NC(=O)[C@H](CC(=O)O)NC(=O)[C@H](Cc2cccnc2)NC(=O)[C@H](CN)NC(=O)CSC[C@@H](C(=O)N[C@@H](C)C(N)=O)NC(=O)[C@H]([C@@H](C)O)NC(=O)[C@H](C(C)C)NC(=O)[C@H](CC2CCCCC2)NC(=O)[C@H](CCN)NC(=O)[C@@H](CC(C)C)NC(=O)[C@H](CCCN)NC1=O` (some centres unmarked) [Compound 2235] showed an IC50 of 9.1 nM.
In the case of `CCC(C)[C@@H]1NC(=O)[C@H](Cc2ccc(-c3ccccc3)cc2)NC(=O)[C@H](C(C)C)NC(=O)[C@H](Cc2cccc(C)c2)NC(=O)[C@H](CC(=O)O)NC(=O)[C@H](Cc2cccnc2)NC(=O)[C@H](Cc2ccncc2)NC(=O)CSC[C@@H](C(=O)N[C@@H](C)C(N)=O)NC(=O)[C@H]([C@@H](C)O)NC(=O)[C@H](C(C)C)NC(=O)[C@H](CC2CCCCC2)NC(=O)[C@H](CCN)NC(=O)[C@@H](CC(C)C)NC(=O)[C@H](CCCN)NC1=O` (some centres unmarked) [Compound 2237], the IC50 is reported as 22.8 nM.
With `CCC(C)[C@@H]1NC(=O)[C@H](Cc2ccc(-c3ccccc3)cc2)NC(=O)[C@H](C(C)C)NC(=O)[C@H](Cc2c[nH]c3ccccc23)NC(=O)[C@H](CC(=O)O)NC(=O)[C@H](Cc2ccncc2)NC(=O)[C@H](Cc2ccncc2)NC(=O)CSC[C@@H](C(=O)N[C@@H](C)C(N)=O)NC(=O)[C@H]([C@@H](C)O)NC(=O)[C@H](C(C)C)NC(=O)[C@H](CC2CCCCC2)NC(=O)[C@H](CCN)NC(=O)[C@@H](CC(C)C)NC(=O)[C@H](CCCN)NC1=O` (stereo partly drawn) [Compound 2238] ({CH2CO}-[4Pal][4Pal]DWV[Bip][Ile(3ξ)][Orn][dL][Dab][Cha]VTCA-NH2; thioether N-14) the IC50 was 18.2 nM.
`CC[C@H](C)[C@@H]1NC(=O)[C@H](Cc2ccc(-c3ccccc3)cc2)NC(=O)[C@H](C(C)C)NC(=O)[C@H](Cc2cccc(C)c2)NC(=O)[C@H](CC(=O)O)NC(=O)[C@H](Cc2ccc(N=[N+]=[N-])cc2)NC(=O)[C@H](Cc2ccncc2)NC(=O)CSC[C@@H](C(=O)N[C@@H](C)C(N)=O)NC(=O)[C@H]([C@@H](C)O)NC(=O)[C@H](C(C)C)NC(=O)[C@H](CC2CCCCC2)NC(=O)[C@H](CCN)NC(=O)[C@@H](CC(C)C)NC(=O)[C@H](CCCN)NC1=O` [Compound 2240] gave an IC50 of 259 nM.
`CCC(C)[C@@H]1NC(=O)[C@H](Cc2ccc(-c3ccccc3)cc2)NC(=O)[C@H](C(C)C)NC(=O)[C@H](Cc2cc(C)ccc2C)NC(=O)[C@H](CC(=O)O)NC(=O)[C@H](Cc2ccc(OCC(=O)O)cc2)NC(=O)[C@H](CN)NC(=O)CSC[C@@H](C(=O)N[C@@H](C)C(N)=O)NC(=O)[C@H]([C@@H](C)O)NC(=O)[C@H](C(C)C)NC(=O)[C@H](CC2CCCCC2)NC(=O)[C@H](CCN)NC(=O)[C@@H](CC(C)C)NC(=O)[C@H](CCCN)NC1=O` (some centres unmarked) [Compound 2241] was tested, and the IC50 was 32.4 nM.
`CCC(C)[C@@H]1NC(=O)[C@H](Cc2ccc(-c3ccccc3)cc2)NC(=O)[C@H](C(C)C)NC(=O)[C@H](Cc2cccc(C)c2C)NC(=O)[C@H](CC(=O)O)NC(=O)[C@H](Cc2ccc(OCC(=O)O)cc2)NC(=O)[C@H](CN)NC(=O)CSC[C@@H](C(=O)N[C@@H](C)C(N)=O)NC(=O)[C@H]([C@@H](C)O)NC(=O)[C@H](C(C)C)NC(=O)[C@H](CC2CCCCC2)NC(=O)[C@H](CCN)NC(=O)[C@@H](CC(C)C)NC(=O)[C@H](CCCN)NC1=O` (some centres unmarked) [Compound 2242] gave an IC50 of 10.3 nM.
In the case of `CCC(C)[C@@H]1NC(=O)[C@H](Cc2ccc(-c3ccccc3)cc2)NC(=O)[C@H](C(C)C)NC(=O)[C@H](Cc2cccc(C)c2F)NC(=O)[C@H](CC(=O)O)NC(=O)[C@H](Cc2ccc(OCC(=O)O)cc2)NC(=O)[C@H](CN)NC(=O)CSC[C@@H](C(=O)N[C@@H](C)C(N)=O)NC(=O)[C@H]([C@@H](C)O)NC(=O)[C@H](C(C)C)NC(=O)[C@H](CC2CCCCC2)NC(=O)[C@H](CCN)NC(=O)[C@@H](CC(C)C)NC(=O)[C@H](CCCN)NC1=O` (some centres unmarked) [Compound 2243], the IC50 is reported as 16.2 nM.
`CCC(C)[C@@H]1NC(=O)[C@H](Cc2ccc(-c3ccccc3)cc2)NC(=O)[C@H](C(C)C)NC(=O)[C@H](Cc2ccc(F)c(C)c2)NC(=O)[C@H](CC(=O)O)NC(=O)[C@H](Cc2ccc(OCC(=O)O)cc2)NC(=O)[C@H](CN)NC(=O)CSC[C@@H](C(=O)N[C@@H](C)C(N)=O)NC(=O)[C@H]([C@@H](C)O)NC(=O)[C@H](C(C)C)NC(=O)[C@H](CC2CCCCC2)NC(=O)[C@H](CCN)NC(=O)[C@@H](CC(C)C)NC(=O)[C@H](CCCN)NC1=O` (some centres unmarked) [Compound 2244] gave an IC50 of 32.9 nM.
`CCC(C)[C@@H]1NC(=O)[C@H](Cc2ccc(-c3ccccc3)cc2)NC(=O)[C@H](C(C)C)NC(=O)[C@H](Cc2ccc(F)c(C(F)(F)F)c2)NC(=O)[C@H](CC(=O)O)NC(=O)[C@H](Cc2ccc(OCC(=O)O)cc2)NC(=O)[C@H](CN)NC(=O)CSC[C@@H](C(=O)N[C@@H](C)C(N)=O)NC(=O)[C@H]([C@@H](C)O)NC(=O)[C@H](C(C)C)NC(=O)[C@H](CC2CCCCC2)NC(=O)[C@H](CCN)NC(=O)[C@@H](CC(C)C)NC(=O)[C@H](CCCN)NC1=O` (some centres unmarked) [Compound 2245] was tested, and the IC50 was 45.5 nM.
With `CCC(C)[C@@H]1NC(=O)[C@H](Cc2ccc(-c3ccccc3)cc2)NC(=O)[C@H](C(C)C)NC(=O)[C@H](Cc2cc(OC)c(F)cc2F)NC(=O)[C@H](CC(=O)O)NC(=O)[C@H](Cc2ccc(OCC(=O)O)cc2)NC(=O)[C@H](CN)NC(=O)CSC[C@@H](C(=O)N[C@@H](C)C(N)=O)NC(=O)[C@H]([C@@H](C)O)NC(=O)[C@H](C(C)C)NC(=O)[C@H](CC2CCCCC2)NC(=O)[C@H](CCN)NC(=O)[C@@H](CC(C)C)NC(=O)[C@H](CCCN)NC1=O` (some centres unmarked) [Compound 2246] the IC50 was 13.2 nM.
With `CCC(C)[C@@H]1NC(=O)[C@H](Cc2ccc(-c3ccccc3)cc2)NC(=O)[C@H](C(C)C)NC(=O)[C@H](Cc2cc(C)ccc2F)NC(=O)[C@H](CC(=O)O)NC(=O)[C@H](Cc2ccc(OCC(=O)O)cc2)NC(=O)[C@H](CN)NC(=O)CSC[C@@H](C(=O)N[C@@H](C)C(N)=O)NC(=O)[C@H]([C@@H](C)O)NC(=O)[C@H](C(C)C)NC(=O)[C@H](CC2CCCCC2)NC(=O)[C@H](CCN)NC(=O)[C@@H](CC(C)C)NC(=O)[C@H](CCCN)NC1=O` (some centres unmarked) [Compound 2247] the IC50 was 13.3 nM.
